Values joined by “and” are separate entries in the source; they are usually repeats but may differ in a detail not shown here. Identical values can stand only once.
What was measured:
Test in all cases: EDTA salt dilution test, MIC/MBC
Format in all cases: cell-based
Kleb. oxytoca = conditions: for MBC, minimum concentration required to kill an entire population: Exhibit A1; for MIC, minimum concentration required to inhibit growth: Exhibit A2
Acinetobacter baumanii = conditions: two entries, Exhibit A1
Kleb. ornitholytica = conditions: for MBC, minimum concentration required to kill an entire population: Exhibit A1; for MIC, minimum concentration required to inhibit growth: Exhibit A2
Proteus vulgaris = conditions: for MBC, minimum concentration required to kill an entire population: Exhibit A1; for MIC, minimum concentration required to inhibit growth: Exhibit A2
Coryneform strait/amy = conditions: for MBC, minimum concentration required to kill an entire population: Exhibit A1; for MIC, minimum concentration required to inhibit growth: Exhibit A2
Kleb. pnemoniae = conditions: two entries; for MBC, minimum concentration required to kill an entire population: Exhibit A1; for MIC, minimum concentration required to inhibit growth: Exhibit A2
Experimental: (§1) Protocol one: Broth dilutions:
(§2) Inoculate a 25 ml nutrient broth (Oxoid No2) in a sterile universal container with one of the following organisms; Pseudomonas aeruginosa, Proteus Mirabilis, E. coli, Klebsiella pneumoniae, Staph aureus, Coagulase negative staphylococci, Enterococcus faecalis or MRSA.
(§3) Incubate the broth at 37° C. overnight.
(§4) To make these concentrations put the EDTA needed for 10 mLs in only 9 mLs of broth in sterile universal containers, as this will be diluted further when the organisms are added.
(§5) Dilute the overnight broth cultures to 10^7 organisms/mL using more sterile nutrient broth.
(§6) Add 1 mL of this diluent to each of the EDTA series broths. This gives a final concentration of 10^6 organism/mL in the EDTA broths.
(§7) Incubate for 18 hours at 37° C.
(§8) Next day visually read the MIC's by observing the turbidity of the broths.
(§9) Plate out 1 uL of each dilution onto fresh blood agar plate and spread using a sterile plastic spreader.
(§10) Incubate overnight at 37° C.
(§11) Next day read the MBC's by performing colony counts.

Ent. faecalis = conditions: for MBC, minimum concentration required to kill an entire population: Exhibit A1; for MIC, minimum concentration required to inhibit growth: Exhibit A2
Experimental: as §1, §2, §3, §4, §5, §6, §7, §8, §9, §10, §11

S. epidermidis = conditions: two entries; for MBC, minimum concentration required to kill an entire population: Exhibit A1; for MIC, minimum concentration required to inhibit growth: Exhibit A2
Experimental: as §1, §2, §3, §4, §5, §6, §7, §8, §9, §10, §11

Pseudomonas sp. = conditions: for MBC, minimum concentration required to kill an entire population: Exhibit A1; for MIC, minimum concentration required to inhibit growth: Exhibit A2
Experimental: as §1, §2, §3, §4, §5, §6, §7, §8, §9, §10, §11

S. xylosus = conditions: for MBC, minimum concentration required to kill an entire population: Exhibit A1; for MIC, minimum concentration required to inhibit growth: Exhibit A2
Experimental: as §1, §2, §3, §4, §5, §6, §7, §8, §9, §10, §11

Proteus mirabilis = conditions: two entries; for MBC, minimum concentration required to kill an entire population: Exhibit A1; for MIC, minimum concentration required to inhibit growth: Exhibit A2
Experimental: as §1, §2, §3, §4, §5, §6, §7, §8, §9, §10, §11

S. simulans = conditions: for MBC, minimum concentration required to kill an entire population: Exhibit A1; for MIC, minimum concentration required to inhibit growth: Exhibit A2
Experimental: as §1, §2, §3, §4, §5, §6, §7, §8, §9, §10, §11

VRE = conditions: two entries; for MBC, minimum concentration required to kill an entire population: Exhibit A1
Experimental: as §1, §2, §3, §4, §5, §6, §7, §8, §9, §10, §11

S. aureus = conditions: five entries; for MBC, minimum concentration required to kill an entire population: Exhibit A1; for MIC, minimum concentration required to inhibit growth: Exhibit A2
Experimental: as §1, §2, §3, §4, §5, §6, §7, §8, §9, §10, §11

S. capitis = conditions: two entries; for MBC, minimum concentration required to kill an entire population: Exhibit A1
Experimental: as §1, §2, §3, §4, §5, §6, §7, §8, §9, §10, §11

E. coli = conditions: three entries; for MBC, minimum concentration required to kill an entire population: Exhibit A1; for MIC, minimum concentration required to inhibit growth: Exhibit A2
Experimental: as §1, §2, §3, §4, §5, §6, §7, §8, §9, §10, §11

MRSA = conditions: five entries; for MBC, minimum concentration required to kill an entire population: Exhibit A1; for MIC, minimum concentration required to inhibit growth: Exhibit A2
Experimental: as §1, §2, §3, §4, §5, §6, §7, §8, §9, §10, §11

S. lentus = conditions: for MBC, minimum concentration required to kill an entire population: Exhibit A1; for MIC, minimum concentration required to inhibit growth: Exhibit A2
Experimental: as §1, §2, §3, §4, §5, §6, §7, §8, §9, §10, §11

Pseudomonas aeruginosa = conditions: two entries; for MBC, minimum concentration required to kill an entire population: Exhibit A1; for MIC, minimum concentration required to inhibit growth: Exhibit A2
Experimental: as §1, §2, §3, §4, §5, §6, §7, §8, §9, §10, §11

Ent. cloacae = conditions: three entries; for MBC, minimum concentration required to kill an entire population: Exhibit A1; for MIC, minimum concentration required to inhibit growth: Exhibit A2
Ent. faeculm = conditions: for MIC, minimum concentration required to inhibit growth: Ent. faecuim, Exhibit A2; for MBC, minimum concentration required to kill an entire population: Ent. faeculm, Exhibit A1
Cornyeform amycolatum = conditions: for MBC, minimum concentration required to kill an entire population: Exhibit A1; for MIC, minimum concentration required to inhibit growth: Exhibit A2
Steno. maltophilia = conditions: for MBC, minimum concentration required to kill an entire population: Exhibit A1; for MIC, minimum concentration required to inhibit growth: Exhibit A2

## O=C([O-])CN(CCN(CC(=O)[O-])CC(=O)[O-])CC(=O)[O-].[Fe+3].[Na+] [Ferric-sodium salt EDTA]
Kleb. oxytoca
  MBC, minimum concentration required to kill an entire population: >15 mg/mL
  MIC, minimum concentration required to inhibit growth: >15 mg/mL
Acinetobacter baumanii
  MBC, minimum concentration required to kill an entire population: 10 mg/mL and >15 mg/mL
Kleb. ornitholytica
  MBC, minimum concentration required to kill an entire population: >15 mg/mL
  MIC, minimum concentration required to inhibit growth: 15 mg/mL
Proteus vulgaris
  MBC, minimum concentration required to kill an entire population: >15 mg/mL
  MIC, minimum concentration required to inhibit growth: >15 mg/mL
Coryneform strait/amy
  MBC, minimum concentration required to kill an entire population: 10 mg/mL
  MIC, minimum concentration required to inhibit growth: 10 mg/mL
Kleb. pnemoniae
  MBC, minimum concentration required to kill an entire population: >15 mg/mL
  MIC, minimum concentration required to inhibit growth: >15 mg/mL and 15 mg/mL
Ent. faecalis
  MBC, minimum concentration required to kill an entire population: >30 mg/mL
  MIC, minimum concentration required to inhibit growth: 4 mg/mL
S. epidermidis
  MBC, minimum concentration required to kill an entire population: >30 mg/mL
  MIC, minimum concentration required to inhibit growth: >20 mg/mL
Pseudomonas sp.
  MBC, minimum concentration required to kill an entire population: >15 mg/mL
  MIC, minimum concentration required to inhibit growth: 15 mg/mL
S. xylosus
  MBC, minimum concentration required to kill an entire population: >30 mg/mL
  MIC, minimum concentration required to inhibit growth: >20 mg/mL
Proteus mirabilis
  MBC, minimum concentration required to kill an entire population: >15 mg/mL
  MIC, minimum concentration required to inhibit growth: >15 mg/mL
S. simulans
  MBC, minimum concentration required to kill an entire population: >30 mg/mL
  MIC, minimum concentration required to inhibit growth: >20 mg/mL
VRE
  MBC, minimum concentration required to kill an entire population: >30 mg/mL
S. aureus
  MBC, minimum concentration required to kill an entire population: >30 mg/mL
  MIC, minimum concentration required to inhibit growth: >20 mg/mL
S. capitis
  MBC, minimum concentration required to kill an entire population: >30 mg/mL
S. capitis; Exhibit A2
  MIC, minimum concentration required to inhibit growth: >20 mg/mL
E. coli
  MBC, minimum concentration required to kill an entire population: >15 mg/mL
  MIC, minimum concentration required to inhibit growth: 15 mg/mL and >15 mg/mL
MRSA
  MBC, minimum concentration required to kill an entire population: >30 mg/mL
  MIC, minimum concentration required to inhibit growth: >20 mg/mL
S. lentus
  MBC, minimum concentration required to kill an entire population: >30 mg/mL
  MIC, minimum concentration required to inhibit growth: >20 mg/mL
Pseudomonas aeruginosa
  MBC, minimum concentration required to kill an entire population: >15 mg/mL
  MIC, minimum concentration required to inhibit growth: 15 mg/mL
Ent. cloacae
  MBC, minimum concentration required to kill an entire population: >15 mg/mL
  MIC, minimum concentration required to inhibit growth: >15 mg/mL
Ent. faeculm
  MIC, minimum concentration required to inhibit growth: 4 mg/mL
  MBC, minimum concentration required to kill an entire population: >30 mg/mL
Cornyeform amycolatum
  MBC, minimum concentration required to kill an entire population: 10 mg/mL
  MIC, minimum concentration required to inhibit growth: 10 mg/mL
Steno. maltophilia
  MBC, minimum concentration required to kill an entire population: >15 mg/mL
  MIC, minimum concentration required to inhibit growth: 10 mg/mL

## O=C([O-])CN(CCN(CC(=O)[O-])CC(=O)[O-])CC(=O)[O-].[Mg+2].[Na+].[Na+] [Magnesium disodium EDTA]
Kleb. oxytoca
  MBC, minimum concentration required to kill an entire population: >30 mg/mL
  MIC, minimum concentration required to inhibit growth: >30 mg/mL
Kleb. ornitholytica
  MBC, minimum concentration required to kill an entire population: >30 mg/mL
  MIC, minimum concentration required to inhibit growth: >30 mg/mL
Proteus vulgaris
  MBC, minimum concentration required to kill an entire population: .30 mg/mL
  MIC, minimum concentration required to inhibit growth: >30 mg/mL
Coryneform strait/amy
  MBC, minimum concentration required to kill an entire population: 4 mg/mL
  MIC, minimum concentration required to inhibit growth: <0.5 mg/mL
Kleb. pnemoniae
  MBC, minimum concentration required to kill an entire population: >30 mg/mL
  MIC, minimum concentration required to inhibit growth: >30 mg/mL
Ent. faecalis
  MBC, minimum concentration required to kill an entire population: >30 mg/mL
  MIC, minimum concentration required to inhibit growth: >30 mg/mL
S. epidermidis
  MBC, minimum concentration required to kill an entire population: 30 mg/mL
  MIC, minimum concentration required to inhibit growth: 6 mg/mL
Pseudomonas sp.
  MBC, minimum concentration required to kill an entire population: >30 mg/mL
  MIC, minimum concentration required to inhibit growth: >30 mg/mL
S. xylosus
  MBC, minimum concentration required to kill an entire population: >30 mg/mL
  MIC, minimum concentration required to inhibit growth: 2 mg/mL
Proteus mirabilis
  MBC, minimum concentration required to kill an entire population: >30 mg/mL
  MIC, minimum concentration required to inhibit growth: >30 mg/mL
S. simulans
  MBC, minimum concentration required to kill an entire population: >30 mg/mL
  MIC, minimum concentration required to inhibit growth: 1.5 mg/mL
VRE
  MBC, minimum concentration required to kill an entire population: >30 mg/mL
VRE; Exhibit A2
  MIC, minimum concentration required to inhibit growth: 25 mg/mL and >30 mg/mL
S. aureus
  MBC, minimum concentration required to kill an entire population: >30 mg/mL
  MIC, minimum concentration required to inhibit growth: >30 mg/mL
S. capitis
  MBC, minimum concentration required to kill an entire population: >30 mg/mL
E. coli
  MBC, minimum concentration required to kill an entire population: >30 mg/mL
  MIC, minimum concentration required to inhibit growth: >30 mg/mL
MRSA
  MBC, minimum concentration required to kill an entire population: >30 mg/mL
  MIC, minimum concentration required to inhibit growth: >30 mg/mL
S. lentus
  MBC, minimum concentration required to kill an entire population: >30 mg/mL
  MIC, minimum concentration required to inhibit growth: 6 mg/mL
Pseudomonas aeruginosa
  MBC, minimum concentration required to kill an entire population: >30 mg/mL
  MIC, minimum concentration required to inhibit growth: >30 mg/mL
Ent. cloacae
  MBC, minimum concentration required to kill an entire population: >30 mg/mL
  MIC, minimum concentration required to inhibit growth: >30 mg/mL
Ent. faeculm
  MIC, minimum concentration required to inhibit growth: 1.5 mg/mL
  MBC, minimum concentration required to kill an entire population: >30 mg/mL
Cornyeform amycolatum
  MBC, minimum concentration required to kill an entire population: 4 mg/mL
  MIC, minimum concentration required to inhibit growth: <0.5 mg/mL
Steno. maltophilia
  MBC, minimum concentration required to kill an entire population: >30 mg/mL
  MIC, minimum concentration required to inhibit growth: >30 mg/mL

— US20100316529A1, “Anti-Microbial Systems and Methods” (priority 2001, published 2010)
